Source: patent publication US8785594B2, “Glycoproteins and glycosylated cells and a method for the preparation of the same” (Glycom A/S, priority 2007, dated 2014)

Tested on: human breast cancer-cell line
Assay: Flow cytometry with fluorescent labeled-lectin of modified cells (Examples 8-10)
Type: cell-based
Conditions: 25 mg, PBS, 3 h at 37° C.
Method: α-Gal epitope-cyclic carbamate 6 (disaccharide) (25 mg) and human breast cancer-cell line 7 (2×10^6 number cell) were mixed in PBS buffer (5 mL) (see FIG. 3). The mixture was kept for 3 h at 37° C., and then the mixture was subjected to centrifugation to separate the cells from the medium.
α-Gal epitope-carbamate 6 (disaccharide) (25 mg) and human breast cancer-cell line 7 (1×10^6 number cell) were mixed in PBS buffer (5 mL) (see FIG. 3). The mixture was kept for 3 h at 37° C., and then the mixture was subjected to centrifugation to separate the cells from the medium.
α-Gal epitope-carbamate 6 (disaccharide) (25 mg) and human breast cancer-cell line 7 (5×10^5 number cell) were mixed in PBS buffer (5 mL) (see FIG. 3). The mixture was kept for 3 h at 37° C., and then the mixture was subjected to centrifugation to separate the cells from the medium.

Measured: Modification of cells shown with fluorescent labeled-lectin

O=C1NC2OC(CO)C(O)C(OC3OC(CO)C(O)C(O)C3O)C2O1 (stereo not drawn) [Compound 6, α-Gal epitope-cyclic carbamate]
modification has been proven: 1×10^6 cells | 2×10^6 cells | 5×10^5 cells
